“And” between values parts separate entries of the source, which are not always exact repeats. Equal values may be shown once.
Experiments:
[1] = test system: U937 cells; test: Loss of mitochondrial membrane potential (reduced DiOC6 uptake, flow cytometry) in U937 cells; assay type: cell-based, human; settings: 18 h, PD184352 10 μM, GFX 1 μM, safingol 2 μM, mean ± SD
Description: Experimental Format. All of the experiments were performed using logarithmically growing cells (3-5×10^5 cells/ml). Cell suspensions were placed in sterile 25 cm^2 T-flasks (Corning, Corning, N.Y.) and incubated with MEK or PKC inhibitors for 30 min at 37° C. At the end of this period, UCN-01 (or in some cases, caffeine) was added to the suspension, and the flasks were placed in 37° C./5% CO2 incubator at various intervals, generally 18 h. In some studies, the p38 MAP kinase inhibitor SB203580 was added concurrently with MEK inhibitors. After drug treatment, cells were harvested and subjected to further analysis as described below.
Analysis of Mitochondrial Membrane Potential (ΔΨm). Cells 2×10^5 were incubated with 40 nM DiOC6 (Molecular Probes Inc., Eugene, Oreg.) in PBS at 37° C. for 20 min and then analyzed by flow cytometry as described previously (Wang et al., 1999).

[2] = test system: colon tumor cells; settings: mice (Sebolt-Leopold et al., 1999); cited from earlier work
[3] = test system: MDA-MB-231 cells; test: TUNEL apoptosis in MDA-MB-231 cells; assay type: cell-based, human; settings: MDA-MB-231, 24 h; with 150 nM UCN-01; PD184352 10 μM, U0126 5 μM; FIG. 8A
Description: Terminal Uridyl-Nucleotide End Labeling (TUNEL) for apoptosis.

[4] = test system: T47D cells; test: Colony forming (clonogenic) assay in T47D cells; assay type: cell-based, human; settings: mock irradiated, 25 μM PD98059, 150 nM UCN-01, replated 48 h, ± SEM
Description: (§1) Colony forming (clonogenic) assay. Cells were plated 36 h prior to experimentation. Cells were pre-treated with MEK1/2 inhibitor as indicated, 2 h prior to exposure. Cells were irradiated (2 Gy). After a further 48 h, cells were isolated by tryptic digestion and single cell suspensions plated on Linbro® plates at densities of 500 cells/well and 1000 cells/well. Colony formation was defined as a colony of 50 cells or greater, 10 days after plating.

[5] = test system: DU145 cells; test: Colony forming (clonogenic) assay in DU145 cells; assay type: cell-based, human; settings: 25 μM PD98059, 150 nM UCN-01, replated 48 h, ± SEM
Description: as §1

[6] = Phase I and pharmacokinetic studies (Fuse et al., 1999); cited from earlier work

For `O=C(NOCC1CC1)c1ccc(F)c(F)c1Nc1ccc(I)cc1Cl` [PD184352], the “"Low" DiOC6 (% cells)” value [1] is listed as 12.1 ± 0.2% and 14.7 ± 1.0%, the “in vivo growth of colon tumor cells” value [2] is listed as “inhibit the in vivo growth of colon tumor cells in mice” and the “apoptosis in combination with UCN-01” value [3] is listed as “enhanced apoptosis”.
In the case of `CN[C@@H]1C[C@H]2O[C@@](C)([C@@H]1OC)n1c3ccccc3c3c4c(c5c6ccccc6n2c5c31)C(=O)N[C@H]4O` [UCN-01, 7-hydroxystaurosporine], the “clonogenic survival (colonies, normalized to control unirradiated cells = 100%)” value [4] is reported as 103 ± 8%, the “clonogenic survival (colonies, normalized to control unirradiated cells = 100%)” value ([5]; DU145, 2 Gy) is reported as 68 ± 2% and the “clonogenic survival (colonies, normalized to control unirradiated cells = 100%)” value ([5]; DU145, mock irradiated) is reported as 82 ± 4%. For the same compound, the plasma half-life [6] was “very long plasma half-life”.
